# Reference: PMC2728155 (Molecular cancer therapeutics, 2009)
# Read-outs that look alike come from different tables or passages of the source.
# Assays:
# [1] = mice, sorafenib tosylate 5 mg/kg oral
# [2] = man, phase I study, cited from earlier work
# [3] = tested on: ACHN and A498 human RCC cells; experiment: MTT assay of cell growth; format: cell-based; conditions: 10 μM, 48 h
# [4] = tested on: caspase-1 and caspase-3 activity in ACHN and A498 cells; experiment: Caspase assay; format: cell-based, human; conditions: 10 μM, 48 h
# [5] = in vivo; conditions: male, Swiss-Webster, mouse, po, 5 mg/kg
# [6] = tested on: ERK phosphorylation in ACHN and A498 cells; experiment: Immunoblot of ERK phosphorylation after PDGF stimulation; format: cell-based, human; conditions: two RCC cell lines (ACHN, A498), 10 μM, 1 h, then PDGF 10 ng/ml 15 min
# [7] = biological target: T1, human sEH (Homo sapiens, UniProt P34913); experiment: biochemical; format: biochemical
# T1 sequence (P34913 1-555): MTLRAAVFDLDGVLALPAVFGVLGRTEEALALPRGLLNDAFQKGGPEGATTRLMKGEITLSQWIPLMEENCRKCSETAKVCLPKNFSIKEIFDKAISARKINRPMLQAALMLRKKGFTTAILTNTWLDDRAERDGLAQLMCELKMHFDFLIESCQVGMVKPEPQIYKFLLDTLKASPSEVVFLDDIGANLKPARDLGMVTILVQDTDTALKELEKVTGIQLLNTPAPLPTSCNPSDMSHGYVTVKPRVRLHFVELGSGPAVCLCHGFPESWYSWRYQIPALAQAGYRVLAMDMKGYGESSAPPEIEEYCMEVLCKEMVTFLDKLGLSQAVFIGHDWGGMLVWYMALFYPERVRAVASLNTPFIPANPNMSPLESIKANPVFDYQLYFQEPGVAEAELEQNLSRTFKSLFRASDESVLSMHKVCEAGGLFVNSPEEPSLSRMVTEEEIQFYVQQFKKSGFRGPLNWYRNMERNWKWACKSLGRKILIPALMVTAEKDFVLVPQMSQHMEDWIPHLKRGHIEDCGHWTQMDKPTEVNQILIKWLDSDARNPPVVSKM
# [8] = biological target: T1, human sEH; format: biochemical; conditions: read-out: Inhibition of the Human sEH KI; pH 7.4
# [9] = biological target: T2, murine sEH (Mus musculus, UniProt P34914); experiment: Fluorescent sEH inhibition assay
# T2 sequence (P34914 1-554): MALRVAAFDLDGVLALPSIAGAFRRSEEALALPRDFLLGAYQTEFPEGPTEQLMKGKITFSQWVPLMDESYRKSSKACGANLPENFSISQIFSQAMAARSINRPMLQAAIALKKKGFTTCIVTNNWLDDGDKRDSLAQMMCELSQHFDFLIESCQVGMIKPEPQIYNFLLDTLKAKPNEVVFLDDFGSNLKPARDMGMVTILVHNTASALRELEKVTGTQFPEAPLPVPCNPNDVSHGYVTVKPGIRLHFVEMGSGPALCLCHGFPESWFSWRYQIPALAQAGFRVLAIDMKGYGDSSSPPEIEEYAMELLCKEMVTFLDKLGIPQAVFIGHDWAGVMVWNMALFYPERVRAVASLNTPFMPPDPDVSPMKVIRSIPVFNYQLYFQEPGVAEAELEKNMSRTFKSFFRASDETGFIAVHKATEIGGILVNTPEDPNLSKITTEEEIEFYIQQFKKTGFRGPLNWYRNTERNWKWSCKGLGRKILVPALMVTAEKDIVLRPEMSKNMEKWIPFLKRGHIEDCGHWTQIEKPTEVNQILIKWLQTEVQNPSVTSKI
structure (smiles),measurement,setting,value
CNC(=O)c1cc(Oc2ccc(NC(=O)Nc3ccc(Cl)c(C(F)(F)F)c3)cc2)ccn1 [Sorafenib],Blood level after 24 h,[1],no sorafenib could be detected
same,Cmax,[2]; similar doses,> 1500 nM
same,AUC0-12,[2],more than 13000 nM h
same,Elimination half life,[2],more than 20 hours
same,Tmax,[2],more than 2 h
same,Decrease of cell growth as compared to serum-stimulated cells,[3],65-70%
same,Apoptosis: caspase-1 and caspase-3 activity,[4],activation of caspase-1 and caspase-3 activity
same,AUC(0-t),[5],0.63 µM·h
same,Cmax,[5],~120 nM
same,half-life,[5],2.6 h
same,ERK phosphorylation,[6],attenuate ERK phosphorylation
CCN(CC)CCNC(=O)c1c(C)[nH]c(/C=C2\C(=O)Nc3ccc(F)cc32)c1C [Sunitinib],IC50,[7],55 µM
same,Inhibition of the human sEH (in words),[7]; fluorescent assay,not potent inhibitors of the human sEH
COc1cccc(-c2cc(=O)c3ccccc3o2)c1N [PD98059],ERK phosphorylation,[6],attenuate ERK phosphorylation
CS(=O)(=O)N1CCC(NC(=O)Nc2ccc(OC(F)(F)F)cc2)CC1 [TUPS],IC50,"[7]; read-out: Inhibition of the Human sEH IC50, pH 7",0.003 ± 0.001 µM
same,Ki,[8],0.014 ± 0.004 µM
Cc1nc(Nc2ncc(C(=O)Nc3c(C)cccc3Cl)s2)cc(N2CCN(CCO)CC2)n1 [Dasatinib],IC50,[9],27 µM
